A value given as a limit tells only on which side of the number the result lay.

The target in the experiment is T1, human recombinant mGluR5 receptor (Homo sapiens, UniProt P41594).
T1 construct: expressed in transfected cells; expression induced with doxycycline
T1 sequence (P41594 21-1212): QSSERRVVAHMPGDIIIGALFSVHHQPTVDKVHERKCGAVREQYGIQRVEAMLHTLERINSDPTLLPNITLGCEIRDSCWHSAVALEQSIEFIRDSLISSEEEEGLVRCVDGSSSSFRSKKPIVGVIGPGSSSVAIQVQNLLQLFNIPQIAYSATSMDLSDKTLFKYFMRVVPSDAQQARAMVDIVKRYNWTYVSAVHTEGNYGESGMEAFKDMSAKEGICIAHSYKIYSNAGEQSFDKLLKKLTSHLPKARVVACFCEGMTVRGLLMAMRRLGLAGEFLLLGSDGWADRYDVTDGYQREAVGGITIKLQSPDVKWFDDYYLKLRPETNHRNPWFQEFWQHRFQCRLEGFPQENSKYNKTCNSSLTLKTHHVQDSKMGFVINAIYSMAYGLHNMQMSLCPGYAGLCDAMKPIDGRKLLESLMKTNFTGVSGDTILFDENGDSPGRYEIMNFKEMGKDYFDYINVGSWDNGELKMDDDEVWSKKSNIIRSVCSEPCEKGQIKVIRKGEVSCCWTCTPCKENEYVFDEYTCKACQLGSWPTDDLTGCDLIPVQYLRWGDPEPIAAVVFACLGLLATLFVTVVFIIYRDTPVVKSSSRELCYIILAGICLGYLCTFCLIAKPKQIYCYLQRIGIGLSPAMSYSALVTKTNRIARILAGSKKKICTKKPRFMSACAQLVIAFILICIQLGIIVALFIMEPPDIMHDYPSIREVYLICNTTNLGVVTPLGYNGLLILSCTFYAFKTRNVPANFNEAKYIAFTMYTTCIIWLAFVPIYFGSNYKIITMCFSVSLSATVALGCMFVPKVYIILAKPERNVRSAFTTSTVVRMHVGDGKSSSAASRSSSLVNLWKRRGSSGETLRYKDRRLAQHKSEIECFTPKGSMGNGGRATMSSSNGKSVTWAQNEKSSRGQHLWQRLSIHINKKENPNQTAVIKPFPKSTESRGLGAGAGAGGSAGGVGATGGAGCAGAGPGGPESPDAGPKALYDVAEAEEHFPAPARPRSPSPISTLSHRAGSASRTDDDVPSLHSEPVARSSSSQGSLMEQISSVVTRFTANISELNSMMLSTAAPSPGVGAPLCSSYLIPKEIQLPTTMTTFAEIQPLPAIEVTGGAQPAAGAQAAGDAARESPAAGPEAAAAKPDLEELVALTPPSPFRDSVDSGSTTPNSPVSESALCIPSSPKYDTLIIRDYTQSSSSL
In words: mGluR5 in vitro functional assay (aequorin cell line, inhibition of glutamate EC80 response). It counts as cell-based. To be noted: Table 2; aequorin cell line expressing human mGluR5, reference agonist glutamate at EC80; obtained in duplicate; read-out: IC50. In short, it runs like this:
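Doxycycline-induced (600 ng/mL, 18 h) aequorin cells loaded with coelenterazine h ≥4 h at room temperature; compound preincubated 3 min before glutamate at EC80. Luminescence recorded, normalized to digitonin or 20 mM ATP wells; % inhibition of EC80 response fitted by sigmoidal nonlinear regression.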
One may read the IC50 as the concentration needed to halve the response being measured. Take `O=C(CN1CCc2oc(-c3cccc(F)c3)nc2C1)c1ccc(F)cc1` [Compound 191, 1-(4-Fluorophenyl)-2-(2-(3-fluorophenyl)-6,7-dihydrooxazolo[4,5-c]pyridin-5(4H)-yl)ethanone]: the IC50 is more than 10000 nM.
Next, `O=C(CN1CCc2oc(-c3ccccn3)nc2C1)c1ccc(F)cc1` [Compound 192, 1-(4-Fluorophenyl)-2-(2-(pyridin-2-yl)-6,7-dihydrooxazolo[4,5-c]pyridin-5(4H)-yl)ethanone]: more than 10000 nM; `c1ccc(-c2nc3c(o2)CCN(c2ccccc2N2CCOCC2)C3)nc1` [Compound 193, 5-(2-Morpholinophenyl)-2-(pyridin-2-yl)-4,5,6,7-tetrahydrooxazolo[4,5-c]pyridine]: less than 1000 nM; `c1ccc(-c2nc3c(o2)CCN(c2cccc4[nH]ccc24)C3)nc1` [Compound 194, 5-(1H-Indol-4-yl)-2-(pyridin-2-yl)-4,5,6,7-tetrahydrooxazolo[4,5-c]pyridine]: less than 1000 nM.
To `CC(C)(c1ccccn1)c1nc2c(o1)CCN(c1cc(F)cc(C#N)c1)C2` [Compound 195, 3-Fluoro-5-(2-(2-(pyridin-2-yl)propan-2-yl)-6,7-dihydrooxazolo[4,5-c]pyridin-5(4H)-yl)benzonitrile] belongs more than 10000 nM; to `CC1(C)CN(c2ccc(F)cc2Cl)Cc2nc(-c3ccccn3)oc21` [Compound 196, 5-(2-Chloro-4-fluorophenyl)-7,7-dimethyl-2-(pyridin-2-yl)-4,5,6,7-tetrahydrooxazolo[4,5-c]pyridine], more than 10000 nM; to `Fc1ccc(N2CCCc3oc(-c4ccccn4)nc3C2)cc1F` [Compound 197, 5-(3,4-Difluorophenyl)-2-(pyridin-2-yl)-5,6,7,8-tetrahydro-4H-oxazolo[4,5-c]azepine], less than 1000 nM.
`Clc1cncc(N2CCCc3oc(-c4ccccn4)nc3C2)c1` [Compound 198, 5-(5-Chloropyridin-3-yl)-2-(pyridin-2-yl)-5,6,7,8-tetrahydro-4H-oxazolo[4,5-c]azepine]: the IC50 is less than 1000 nM.
As to `Fc1cc(Cl)cc(N2CCCc3oc(-c4ccccn4)nc3C2)c1` [Compound 199, 5-(3-Chloro-5-fluorophenyl)-2-(pyridin-2-yl)-5,6,7,8-tetrahydro-4H-oxazolo[4,5-c]azepine], the concentration for half-maximal inhibition (IC50) was less than 1000 nM.
To `Fc1ccc(N2CCCc3oc(-c4ncccn4)nc3C2)cc1F` [Compound 200, 5-(3,4-Difluorophenyl)-2-(pyrimidin-2-yl)-5,6,7,8-tetrahydro-4H-oxazolo[4,5-c]azepine] belongs more than 10000 nM.
For `Clc1cncc(N2CCCc3oc(-c4ncccn4)nc3C2)c1` [Compound 201, 5-(5-Chloropyridin-3-yl)-2-(pyrimidin-2-yl)-5,6,7,8-tetrahydro-4H-oxazolo[4,5-c]azepine], the IC50 is less than 10000 nM.
Next, `Fc1cc(Cl)cc(N2CCCc3oc(-c4ncccn4)nc3C2)c1` [Compound 202, 5-(3-Chloro-5-fluorophenyl)-2-(pyrimidin-2-yl)-5,6,7,8-tetrahydro-4H-oxazolo[4,5-c]azepine]: less than 1000 nM; `N#Cc1cc(F)cc(N2CCCc3oc(-c4ncccn4)nc3C2)c1` [Compound 203, 3-Fluoro-5-(2-(pyrimidin-2-yl)-7,8-dihydro-4H-oxazolo[4,5-c]azepin-5(6H)-yl)benzonitrile]: less than 1000 nM; `Fc1ccc(N2CCCc3oc(-c4ncccn4)nc3C2)cc1Cl` [Compound 204, 5-(3-Chloro-4-fluorophenyl)-2-(pyrimidin-2-yl)-5,6,7,8-tetrahydro-4H-oxazolo[4,5-c]azepine]: more than 10000 nM.
With `Fc1ccc(-c2nc3c(o2)CCCN(c2cc(F)cc(Cl)c2)C3)nc1` [Compound 205, 5-(3-Chloro-5-fluorophenyl)-2-(5-fluoropyridin-2-yl)-5,6,7,8-tetrahydro-4H-oxazolo[4,5-c]azepine], the IC50 was less than 1000 nM.
To `N#Cc1cc(F)cc(N2CCCc3oc(-c4cncnc4)nc3C2)c1` [Compound 206, 3-Fluoro-5-(2-(pyrimidin-5-yl)-7,8-dihydro-4H-oxazolo[4,5-c]azepin-5(6H)-yl)benzonitrile] belongs more than 10000 nM; to `Cc1nc(-c2nc3c(o2)CCCN(c2ccccn2)C3)cs1` [Compound 207, 2-(2-Methylthiazol-4-yl)-5-(pyridin-2-yl)-5,6,7,8-tetrahydro-4H-oxazolo[4,5-c]azepine], less than 10000 nM.
To `Cc1nc(N2CCCc3oc(-c4ccccn4)nc3C2)cs1` [Compound 208, 5-(2-Methylthiazol-4-yl)-2-(pyridin-2-yl)-5,6,7,8-tetrahydro-4H-oxazolo[4,5-c]azepine] belongs more than 10000 nM.
To `Clc1cc(Cl)cc(N2CCCc3oc(-c4ccccn4)nc3C2)c1` [Compound 209, 5-(3,5-Dichlorophenyl)-2-(pyridin-2-yl)-5,6,7,8-tetrahydro-4H-oxazolo[4,5-c]azepine] belongs less than 1000 nM; to `[2H]c1c(F)c([2H])c(N2CCCc3oc(-c4ccccn4)nc3C2)c([2H])c1C#N` [Compound 210, 2,4,6-d3-3-Fluoro-5-(2-(pyridin-2-yl)-7,8-dihydro-4H-oxazolo[4,5-c]azepin-5(6H)-yl)benzonitrile], less than 1000 nM; to `Clc1ccccc1N1CCCc2oc(-c3ccccn3)nc2C1` [Compound 211, 5-(2-Chlorophenyl)-2-(pyridin-2-yl)-5,6,7,8-tetrahydro-4H-oxazolo[4,5-c]azepine], less than 1000 nM.
For `Clc1ccc(N2CCCc3oc(-c4ccccn4)nc3C2)cc1` [Compound 212, 5-(4-Chlorophenyl)-2-(pyridin-2-yl)-5,6,7,8-tetrahydro-4H-oxazolo[4,5-c]azepine], the IC50 was less than 1000 nM.
Next, `COc1cc(C#N)cc(N2CCCc3oc(-c4ccccn4)nc3C2)c1` [Compound 213, 3-Methoxy-5-(2-(pyridin-2-yl)-7,8-dihydro-4H-oxazolo[4,5-c]azepin-5(6H)-yl)benzonitrile]: less than 1000 nM; `N#Cc1cc(O)cc(N2CCCc3oc(-c4ccccn4)nc3C2)c1` [Compound 214, 3-Hydroxy-5-(2-(pyridin-2-yl)-7,8-dihydro-4H-oxazolo[4,5-c]azepin-5(6H)-yl)benzonitrile]: less than 1000 nM.
In the case of `CC1CCN(c2cc(F)cc(C#N)c2)Cc2nc(-c3ccccn3)oc21` (centres unmarked) [Compound 215, 3-Fluoro-5-(8-methyl-2-(pyridin-2-yl)-7,8-dihydro-4H-oxazolo[4,5-c]azepin-5(6H)-yl)benzonitrile], the IC50 is less than 1000 nM.
Next, `N#Cc1cc(N2CCCc3oc(-c4ccccn4)nc3C2)cc(F)c1F` [Compound 216, 2,3-Difluoro-5-(2-(pyridin-2-yl)-7,8-dihydro-4H-oxazolo[4,5-c]azepin-5(6H)-yl)benzonitrile]: less than 1000 nM; `COc1c(F)cc(N2CCCc3oc(-c4ccccn4)nc3C2)cc1C#N` [Compound 217, 3-Fluoro-2-methoxy-5-(2-(pyridin-2-yl)-7,8-dihydro-4H-oxazolo[4,5-c]azepin-5(6H)-yl)benzonitrile]: less than 1000 nM; `N#Cc1cc(N2CCCc3oc(-c4ccccn4)nc3C2)cc(F)c1O` [Compound 218, 3-Fluoro-2-hydroxy-5-(2-(pyridin-2-yl)-7,8-dihydro-4H-oxazolo[4,5-c]azepin-5(6H)-yl)benzonitrile]: less than 10000 nM.
To `N#Cc1cc(F)cc(C2CCc3oc(-c4ccccn4)nc3C2)c1` (centres unmarked) [Compound 222, 3-Fluoro-5-(2-(pyridin-2-yl)-4,5,6,7-tetrahydrobenzo[d]oxazol-5-yl)benzonitrile] belongs less than 1000 nM.

Source of the values: patent US20120029190A1, “COMPOUNDS FOR TREATING DISORDERS MEDIATED BY METABOTROPIC GLUTAMATE RECEPTOR 5, AND METHODS OF USE THEREOF” (priority 2009, published 2012).
